According to patent US20060252045A1, “Methods and materials for identifying agents which modulate bone remodeling and agents identified thereby” (priority 2003, published 2006):

What was measured:
[1] = system: Wnt/β-catenin target gene expression in MC3T3 cells; test: Flexercell mechanical load gene expression in MC3T3 cells (real-time PCR); settings: for load induced Frizzled 2, eNOS, Fos and Jun gene expression: MC3T3, 1-60 μM added 1 hr prior to load; for load induced Connexin 43, Cyclin D1, Wnt 10b, SFRP1 and COX-2 gene expression: MC3T3, 1-60 μM added 1 hr prior to load (3,400 με, 5 hrs)
Procedure: For these experiments, the mouse MC3T3 osteoblastic cells were cultured in alpha minimum essential media (αMEM) (Invitrogen) supplemented with 10% heat inactivated FBS, 1% glutamax (Invitrogen) and 1% penicillin/streptomycin (Invitrogen). […] For those samples being pretreated in serum free media the cells were washed twice each with 2 mL of basal αMEM media prior to adding the BSA containing media. […] The cells were then subjected to mechanical distortion equivalent to 3,400 με (2 Hz, 7200 cycles/hr), for 5 hrs using a FX-3000 Flexercell® strain unit (Flexcell International Corp). RNA was then harvested (using the Qiagen Rneasy mini kit) immediately or 24 hr post loading from both the mechanical strained samples as well as the non-strained controls. All data shown in the examples that utilize the FlexerCell were derived from the RNA immediately harvested following loading.
Real-time PCR was then performed for the indicated genes using mouse gene specific primers and probes as discussed above.
RNA was isolated immediately after application of load and processed for TaqMan® analysis. The transcripts analyzed were COX-2, eNOS, Connexin 43, SFRP1, Wnt10B, cyclin D1, Frizzled 2, WISP2, Fos and Jun (FIG. 15).
Here, Wnt 3A conditioned media was obtained from mouse L-cells transfected with murine Wnt 3A. The MC3T3 cells were seeded and cultured for 3 days in growth media until confluence, as described above. The media for the MC3T3 cells was then changed to BSA containing media, and the cells were incubated for 24 hours. The BSA-containing media was then removed and replaced with fresh BSA media at a final volume of 1 mL containing various amounts of L-cell Wnt 3A conditioned media or control conditioned media from untransfected L-cells. The amount of Wnt 3A conditioned media varied from 0.5, 2.0, 5.0, 10.0, 20.0 and 100 μL in a final volume of 1 ml serum free BSA media. The MC3T3 cells were then subjected to 3,400 με at 2 Hz, 7200 cycles/hr for 5 hours as described in the prior examples.

[2] = system: alkaline phosphatase activity in calvarial osteoblasts; test: Mouse calvarial model: alkaline phosphatase histochemical staining; type: in vivo; settings: local administration, 7 days, vs vehicle
Procedure: Following sacrifice by CO2 narcosis, calvariae were removed intact, soft tissues were gently dissected, and the bones were fixed in 70% ethanol for 24 h for further processing and analysis. Calvariae were then bisected perpendicular to the sagittal suture through the central portion of the parietal bones parallel to the lambdoidal and coronal sutures. The anterior portion of the calvaria was used for paraffin sections, and the posterior portion of the calvaria was used for frozen sections. Four to five 5 μm-thick representative, non-consecutive step sections were cut. […] The frozen sections were used for alkaline phosphatase detection. To facilitate histomorphometric measurements, a standard length of 2 mm of each section from the edge of the sagittal suture to the muscle insertion at the lateral border of each bone was used. All measurements were made using the R&M Biometrics Inc. Bioquant Image Analysis System.
The activity of Alkaline Phosphatase (ALPase) was assessed with a histochemical stain using a Vector Red Alkaline Phosphatase Substrate Kit (Vector Laboratories, Inc. Burlingame, Calif.) in 6 μm frozen sections of the mouse parietal bone after fixing in 70% Ethanol.

mouse calvariae = test: Mouse calvarial model: calvarial thickness (histomorphometry); type: in vivo; settings: 20 μg/kg/day
Procedure: Following sacrifice by CO2 narcosis, calvariae were removed intact, soft tissues were gently dissected, and the bones were fixed in 70% ethanol for 24 h for further processing and analysis. Calvariae were then bisected perpendicular to the sagittal suture through the central portion of the parietal bones parallel to the lambdoidal and coronal sutures. The anterior portion of the calvaria was used for paraffin sections, and the posterior portion of the calvaria was used for frozen sections. Four to five 5 μm-thick representative, non-consecutive step sections were cut. The paraffin sections are routinely stained with hematoxylin and eosin (H&E) for the measurement of calvarial thickness. The frozen sections were used for alkaline phosphatase detection. To facilitate histomorphometric measurements, a standard length of 2 mm of each section from the edge of the sagittal suture to the muscle insertion at the lateral border of each bone was used. All measurements were made using the R&M Biometrics Inc. Bioquant Image Analysis System.

β-catenin = test: Mouse calvarial model: β-catenin immunohistochemistry; type: in vivo; settings: local injection
Procedure: Following sacrifice by CO2 narcosis, calvariae were removed intact, soft tissues were gently dissected, and the bones were fixed in 70% ethanol for 24 h for further processing and analysis. Calvariae were then bisected perpendicular to the sagittal suture through the central portion of the parietal bones parallel to the lambdoidal and coronal sutures. The anterior portion of the calvaria was used for paraffin sections, and the posterior portion of the calvaria was used for frozen sections. Four to five 5 μm-thick representative, non-consecutive step sections were cut.
After fixation, the anterior portion of the calvaria was decalcified in Surgipath Decalcifier II (Richmond, Ill.) for 7-8 h and then dehydrated in graded alcohol. Four to five 5 μm-thick representative, non-consecutive coronal step paraffin sections were cut. […] The binding of the antibody to the epitope was visualized (1 μg/1 mL) using an avidin-linked AP system (Vector Laboratories, Burlingame, Calif.). Controls comprised samples with the avidin-AP in the absence of primary antibody.

[3] = system: Dkk1 suppressed Wnt1/Wnt 3A TCF-signal in U2OS cells; test: Release of Dkk1 mediated inhibition of TCF-signal in U2OS cells; type: cell-based, human; settings: Dkk1 0.1 μg/well co-transfected with Wnt1 or Wnt 3A
Procedure: The final readout is activation of Dkk1 mediated suppressed TCF-signal. […] The experiment represented in FIG. 2 involved U2OS (ATCC) bone cells and is based on the endogenous expression of LRP5/6 receptors. […] 10 μL of the 15× stock was added per well along with appropriately diluted vehicle (i.e., DMSO) control.

CS(=O)(=O)Nc1ccc([N+](=O)[O-])cc1OC1CCCCC1 [NS-398, N-(2-cyclohexyloxy-4-nitrophenyl)methanesulfonamide]
load induced Frizzled 2, eNOS, Fos and Jun gene expression [1]: no effect | load induced Connexin 43, Cyclin D1, Wnt 10b, SFRP1 and COX-2 gene expression [1]: block the induction | load induced Connexin 43, Cyclin D1, Wnt 10b, SFRP1 and COX-2 gene expression ([1]; listed as COX-2 inhibitor): does not induce transcription | load induced Frizzled 2, eNOS, Fos and Jun gene expression ([1]; listed as COX-2 inhibitor): independent of COX-2 activity

Human PTH (1-34): Human parathyroid hormone (1-34), positive control in the calvarial model (SVSEIQLMHNLGKHLNSMERVEWLRKKLQDVHNF; Parathyroid hormone; UniProt P01270 32-65, looked up, fragment)
alkaline phosphatase (ALPase) activity in osteoblasts [2]: markedly enhanced | effect on calvarial thickness (positive control) (mouse calvariae): significant increase in calvarial thickness | β-catenin expression in osteoblastic cells lining the periosteum (β-catenin): no effect

Wnt 3A
cyclin D1, connexin 43, SFRP1, Wnt 10B, WISP2, COX-2, FOS and JUN gene expression, alone ([1]; MC3T3, Wnt 3A conditioned media, no load): no effect

B1: Dkk1: Wnt antagonist co-transfected into U2OS cells; inhibits LRP5 activity (protein, UniProt O94907 32-266, looked up)
Dickkopf-related protein 1: TLNSVLNSNAIKNLPPPLGGAAGHPGSAVSAAPGILYPGGNKYQTIDNYQPYPCAEDEECGTDEYCASPTRGGDAGVQICLACRKRRKRCMRHAMCCPGNYCKNGICVSSDQNHFRGEIEETITESFGNDHSTLDGYSRRTTLSSKMYHTKGQEGSVCLRSSDCASGLCCARHFWSKICKPVLKEGQVCTKHRRKGSHGLEIFQRCYCGEGLSCRIQKDHHQASNSSRLHTCQRH
effect on Wnt1/Wnt 3A TCF-activity [3]: suppressed almost completely
